Test results published in patent EP3351262A1, “CURAGLUTIDE FOR IN TREATMENT OF PREDIABETES, DIABETES, OBESITY AND METABOLIC DISEASES ASSOCIATED THERETO” (Istanbul Universitesi Rektorlugu, priority 2016, dated 2018).
“And” between values parts separate entries of the source, which are not always exact repeats. Equal entries are not always repeated.

Key:
Format in all cases: cell-based, rat
LC3-II = assay: Western blotting of autophagy marker LC3-II in cell lysates; conditions: for LC3-II amounts: INS-1 cells; for amount of intracellular LC3-II: control 0.44±0.00
Experimental: (§1) Trypsin is applied to 75 cm^2 flask containing INS-1 […] beta cells and it is centrifuged in 1500 rpm for 15 minutes. According to the density of pellet formed after centrifuge, it is centrifuged at 4 °C in 1500 rpm for 5 minutes by providing the washing with pipetting with PBS and transferring into 2 ml eppendorf. The supernatant was removed, lysis buffer was added according to the density of pellet and pipetting is performed carefully. It was left for 30 minutes on the ice by vortexing in every 10 minutes. Then the cells were allowed to lysis by ultrasonication for 10 seconds for 5 times, keeping on ice for 10 seconds and they were centrifuged at 4 °C in 13000 rpm for 10 minutes. The supernatant occurred was taken to 0,2 ml eppendorf tubes, and they were taken to -86 °C temperature. These operations were repeated for 3 times for each of the control and experiment groups.
(§2) Bradford method was used in order to determine the protein content. First, a standard curve was formed by using BSA (bovine serum albumin) having a concentration of 1.46 mg/ml. This curve was prepared as following: Bradford solution was added into 80 µg/ml, 40 µg/ml, 20 µg/ml, 10 µg/ml BSA, their absorbance was measured in 595 nm, it was diluted in a way that the lysates are 1/100 and 160 µl was taken, their absorbance in the same wavelengths was determined. After absorbance/concentration graph of the standards was obtained, the concentrations of the samples whose concentrations are […] were determined by using the slope equation of this graph.
(§3) Protein bands separated by electrophoresis in gel were transferred from the gel into nitrocellulose membrane. After membrane transferring operation, transfer efficiency was controlled for 15 minutes by using Ponceau S painting solution.
(§4) The membrane wherein the proteins were transferred, was incubated at room temperature for 1 hour with blocking solution prepared with skimmed milk powder. The membranes were incubated with primary antibodies suitable diluting ratios (Table 1) for 1 night at +4 °C, following the blocking operation. Following this operation, washed membranes were treated with peroxidase marked goat anti-rabbit secondary IgGs (Santa Cruz, CA, USA, sc-2004) at room temperature for 1 hour. Following the treatment with secondary antibodies of membranes, they were washed with washing solution and shaken with pure water. Then, the specific protein bands were monitored by KodakGL1500 gel monitoring system, by chemiluminescence method using Western Blotting Luminol Reagent (Santa Cruz, CA, USA, sc-2048) chemiluminescence substrate. Their densitometric analysis were performed by "Kodak Molecular Imaging Systems" software. The statistical analysis between the bands were performed by normalizing the band densities of the protein samples whose densitometric analysis were performed, to the density of β-actin protein. Table 1: The primary antibodies used in Western blotting method, the dilution ratios and periods thereof
In order to determine the autophagic dose, LC3-II protein amounts which are the autophagic markers were determined by western blotting method by obtaining lysate from the cells on which 0.75, 1, 1.75, 2, 2.5 and 3 mM palmitic acid was applied. The graph obtained from western blotting bands and the calculation performed as a result of the analysis of these bands is shown in Figure 2.
Intracellular LC3 protein amount was observed by western blotting in order to examine the effect of curaglutide on autophagy stimulated by 1,75 mM palmitic acid in INS-1 beta cells.

cytochrome-c = assay: Western blotting of apoptotic protein cytochrome-c in cell lysates; conditions: for cytochrome-c amounts: INS-1 cells, normalized to β-actin; for amount of cytochrome-c: control 1.02±0.02
Experimental: as §1, §2, §3, §4
(§5) In order to determine the apoptosis dose, p 53, cytochrome-c and active caspase-3 protein amounts were determined by western blotting method by obtaining lysate from the cells in which 0.75, 1,1.75,2,2.5 and 3 mM palmitic acid were applied. The graph obtained from western blotting bands and the calculation performed as a result of the analysis of these bands is shown in Figure 3.
(§6) The amount of intracellular proteins such as p53, cytochrome-c and active caspase-3 were observed by western blotting in order to examine the effect of curaglutide on apoptosis stimulated by 2 mM palmitic acid in INS-1 beta cells.

active caspase-3 = assay: Western blotting of apoptotic protein active caspase-3 in cell lysates; conditions: for active caspase-3 amounts: INS-1 cells, normalized to β-actin; for amount of active caspase-3: control 1.07±0.01
Experimental: as §1, §2, §3, §4, §5, §6

p53 = assay: Western blotting of apoptotic protein p53 in cell lysates; conditions: for p-53 amounts: INS-1 cells, normalized to β-actin; for amount of intracellular p53: control 1.06±0.00
Experimental: as §1, §2, §3, §4, §5, §6

[1] = 10 nM curaglutide as curative agent, 2 mM palmitic acid (apoptotic dose)
[2] = 10 nM curaglutide as protector against 2 mM palmitic acid (apoptotic dose)

Structure (SMILES): CCCCCCCCCCCCCCCC(=O)O [palmitic acid]
- LC3-II amounts (LC3-II; 0.75 mM palmitic acid, band density normalized to β-actin, control 0.50±0.01): 0.60±0.00
- LC3-II amounts (LC3-II; 1 mM palmitic acid, band density normalized to β-actin, control 0.50±0.01): 0.60±0.00
- LC3-II amounts (LC3-II; 1.75 mM palmitic acid (autophagic dose), normalized to β-actin, control 0.50±0.01 / 0.44±0.00): 0.70±0.03 and 0.70±0.01
- LC3-II amounts (LC3-II; 2 mM palmitic acid, band density normalized to β-actin, control 0.50±0.01): 0.52±0.02
- LC3-II amounts (LC3-II; 2.5 mM palmitic acid, band density normalized to β-actin, control 0.50±0.01): 0.50±0.00
- LC3-II amounts (LC3-II; 3 mM palmitic acid, band density normalized to β-actin, control 0.50±0.01): 0.49±0.01
- cytochrome-c amounts (cytochrome-c; 0.75 mM palmitic acid, control 1.05±0.02): 1.07±0.02
- cytochrome-c amounts (cytochrome-c; 1 mM palmitic acid, control 1.05±0.02): 1.06±0.01
- cytochrome-c amounts (cytochrome-c; 1.75 mM palmitic acid, control 1.05±0.02): 1.07±0.05
- cytochrome-c amounts (cytochrome-c; 2 mM palmitic acid (apoptotic dose), control 1.05±0.02 / 1.02±0.02): 1.23±0.00 and 1.22±0.00
- cytochrome-c amounts (cytochrome-c; 2.5 mM palmitic acid, control 1.05±0.02): 1.11±0.04
- cytochrome-c amounts (cytochrome-c; 3 mM palmitic acid, control 1.05±0.02): 1.09±0.02
- active caspase-3 amounts (active caspase-3; 0.75 mM palmitic acid, control 1.08±0.00): 1.03±0.03
- active caspase-3 amounts (active caspase-3; 1 mM palmitic acid, control 1.08±0.00): 1.03±0.00
- active caspase-3 amounts (active caspase-3; 1.75 mM palmitic acid, control 1.08±0.00): 1.02±0.05
- active caspase-3 amounts (active caspase-3; 2 mM palmitic acid (apoptotic dose), control 1.08±0.00 / 1.07±0.01): 1.26±0.00 and 1.22±0.00
- active caspase-3 amounts (active caspase-3; 2.5 mM palmitic acid, control 1.08±0.00): 1.15±0.03
- active caspase-3 amounts (active caspase-3; 3 mM palmitic acid, control 1.08±0.00): 1.06±0.00
- p-53 amounts (p53; 0.75 mM palmitic acid, control 1.04±0.00): 1.1±0.00
- p-53 amounts (p53; 1 mM palmitic acid, control 1.04±0.00): 1.14±0.00
- p-53 amounts (p53; 1.75 mM palmitic acid, control 1.04±0.00): 1.16±0.05
- p-53 amounts (p53; 2 mM palmitic acid (apoptotic dose), control 1.04±0.00 / 1.06±0.00): 1.3±0.02 and 1.31±0.02
- p-53 amounts (p53; 2.5 mM palmitic acid, control 1.04±0.00): 1.14±0.06
- p-53 amounts (p53; 3 mM palmitic acid, control 1.04±0.00): 1.03±0.00

Structure (SMILES): CC[C@H](C)[C@H](NC(=O)[C@H](Cc1ccccc1)NC(=O)[C@H](CCC(=O)O)NC(=O)[C@H](CCCCN)NC(=O)[C@H](C)NC(=O)[C@H](C)NC(=O)[C@H](CCC(N)=O)NC(=O)CNC(=O)[C@H](CCC(=O)O)NC(=O)[C@H](CC(C)C)NC(=O)[C@H](Cc1ccc(O)cc1)NC(=O)[C@H](CO)NC(=O)[C@H](CO)NC(=O)[C@@H](NC(=O)[C@H](CC(=O)O)NC(=O)[C@H](CO)NC(=O)[C@@H](NC(=O)[C@H](Cc1ccccc1)NC(=O)[C@@H](NC(=O)CNC(=O)[C@H](CCC(=O)O)NC(=O)[C@H](C)NC(=O)[C@H](Cc1c[nH]cn1)NC(C)=O)[C@@H](C)O)[C@@H](C)O)C(C)C)C(=O)N[C@@H](C)C(=O)N[C@@H](Cc1c[nH]c2ccccc12)C(=O)N[C@@H](CC(C)C)C(=O)N[C@H](C(=O)N[C@@H](CCCCN)C(N)=O)C(C)C [curaglutide]
- amount of intracellular LC3-II (LC3-II; 10 nM curaglutide as curative agent, 1.75 mM palmitic acid (autophagic dose)): 0.32±0.00
- amount of intracellular LC3-II (LC3-II; 10 nM curaglutide as protector, 1.75 mM palmitic acid (autophagic dose)): 0.29±0.00
- amount of cytochrome-c (cytochrome-c; [1]): 0.67±0.07
- amount of cytochrome-c (cytochrome-c; [2]): 0.80±0.10
- amount of active caspase-3 (active caspase-3; [1]): 0.54±0.00
- amount of active caspase-3 (active caspase-3; [2]): 0.67±0.00
- amount of intracellular p53 (p53; [1]): 0.65±0.13
- amount of intracellular p53 (p53; [2]): 0.54±0.24
